Test results as given in patent US20250042918A1, “COMPOUNDS” (Fundación Del Sector Públlco Estatal Centro Nacional De …, priority 2021, published 2025).

What was measured:
Assay type in all cases: cell-based
BT-474 = assay: In vitro potency against breast cancer cell lines (CellTiter Glo); settings: Homo sapiens, BT-474, 72 h; read-out: absolute IC50 BT-474
Experimental: (§1) To prepare the complete medium FBS and appropriate additives were added according to the information sheet provided by the vendor and mixed gently. The cell name and complete medium and passage number marked on the flask were checked, and the culture medium removed and discarded using a vacuum pump. […] 3.0 ml of Trypsin-EDTA solution was added to the flask and the cells observed under an inverted microscope until cell layer is dispersed. 8.0 ml of complete growth medium was added and the cells aspirated by gently pipetting. The cell suspension was transferred to a centrifuge tube and centrifuged at 800-1000 rpm for 3-5 minutes. The supernatant was discarded using a vacuum pump, and an appropriate volume of complete medium added. The cell pellet was suspended by gently pipetting, and the cell numbers counted with Vi-cell XR and the cells adjusted to appropriate density. 100 μL of cell suspension to 96-well opaque-walled clear bottom plates was added according to the planned plate layout and the plates placed in the CO2 incubator overnight.
(§2) c. […] Meanwhile the day 0 plate was measured by Cell TiterGlo as listed below.
(§3) d. Cells were incubated with the compounds for 72 h at 5% CO2, 37° C.
(§4) The CellTiter-Glo buffer was thawed and equilibrated to room temperature prior to use. The lyophilized CellTiter-Glo substrate was equilibrated to room temperature prior to use. The appropriate volume of CellTiter-Glo buffer was transferred into the amber bottle containing CellTiter-Glo substrate to reconstitute the lyophilized enzyme/substrate mixture, thereby forming the CellTiter-Glo reagent. Mixing was carried out by gently vortexing, swirling or by inverting the contents to obtain a homogeneous solution, the CellTiter-Glo substrate going into solution easily in less than one minute.
(§5) The plate and its contents were equilibrated to room temperature for approximately 30 minutes, after which 100 μL of CellTiter-Glo reagent was added to the assay plate by Multidrop Combi instrument and the contents mixed for 10 minutes on an orbital shaker to induce cell lysis. The plate was allowed to incubate at room temperature for 10 minutes to stabilize luminescent signal and the clear bottom pasted with white back seal and the luminescence recorded with Enspire with the settings: Luminescence, measurement time 0.1 ms.

HCC1143 = assay: as above; settings: Homo sapiens, HCC1143, 72 h; read-out: absolute IC50 HCC1143
Experimental: as §1, §2, §3, §4, §5

HCC1954 = assay: as above; settings: Homo sapiens, HCC1954, 72 h; read-out: absolute IC50 HCC1954
Experimental: as §1, §2, §3, §4, §5

HCC38 = assay: as above; settings: Homo sapiens, HCC38, 72 h; read-out: absolute IC50 HCC38
Experimental: as §1, §2, §3, §4, §5

MDA-MB-361 = assay: as above; settings: Homo sapiens, MDA-MB-361, 72 h; read-out: absolute IC50 MDA-MB-361
Experimental: as §1, §2, §3, §4, §5

T-47D = assay: as above; settings: Homo sapiens, T47D, 72 h; read-out: absolute IC50 T-47D
Experimental: as §1, §2, §3, §4, §5

HL-60 = assay: In vitro potency against leukemia cell lines (CellTiter Glo); settings: Homo sapiens, 72 hours, read-out: absolute IC50 HL-60
Experimental: as §1, §2, §3, §5
(§6) In all cases, the incubation time was 72 hours and the cell lines were grown as a suspension. The seeding density was […] in a 96 well plate.

Jeko-1 = assay: as above; settings: Homo sapiens, 72 hours, read-out: absolute IC50 JeKo-1
Experimental: as §1, §2, §3, §5, §6

KG-1 = assay: as above; settings: Homo sapiens, 72 hours, read-out: absolute IC50 KG-1
Experimental: as §1, §2, §3, §5, §6

Kasumi-3 = assay: as above; settings: 72 hours, read-out: absolute IC50 Kasumi-3
Experimental: as §1, §2, §3, §5, §6

MV-4-11 = assay: as above; settings: Homo sapiens, MV4-11; 72 hours; read-out: absolute IC50 MV-4-11
Experimental: as §1, §2, §3, §5, §6

Molm-13 = assay: as above; settings: Homo sapiens, 72 hours, read-out: absolute IC50 Molm-13
Experimental: as §1, §2, §3, §5, §6

OCI-M1 = assay: as above; settings: 72 hours, read-out: absolute IC50 OCI-M1
Experimental: as §1, §2, §3, §5, §6

- IC50 (BT-474): 114 nM
- IC50 (HCC1143): 145 nM
- IC50 (HCC1954): 14.5 nM
- IC50 (HCC38): 66.4 nM
- IC50 (MDA-MB-361): 30.1 nM
- IC50 (T-47D): 56.5 nM
- IC50 (HL-60): 430 nM
- IC50 (Jeko-1): 67.8 nM
- IC50 (KG-1): 90 nM
- IC50 (Kasumi-3): 105 nM
- IC50 (MV-4-11): 36.5 nM
- IC50 (Molm-13): 44.3 nM
- IC50 (OCI-M1): 125 nM
Compound: Cn1c(=O)n(-c2ccc(C(C)(C)C#N)cc2)c2c3cc(-c4cnc5ccccc5c4)ccc3ncc21 [Dactolisib, dactolisib]
